Data from patent US20230042929A1, “Methods of Screening to Determine Effective Dosing of Cancer Therapeutics” (Kiyatec, Inc., priority 2019, published 2023).
Like-named read-outs stand apart in the source and are kept apart here.

Experiments:
[1] = tested on: OVC45 and OVC33 ovarian cancer patient derived 3D spheroids; assay: 3D spheroid drug response assay (CellTiter-Glo 3D, imaging); type: cell-based, human
Protocol: Live OC tissue was received within 24 hours of surgery and dissociated to single cells via mechanical and enzymatic digestion. Cells were then cryopreserved until ready for use. 3D spheroids were generated as previously described. Briefly, cells were seeded in KIYA-PREDICT™ media (KIYATEC, Inc., South Carolina, USA) in 384-well round bottom, ultra-low attachment plates (Corning Inc., New York, USA) and centrifuged at 500×g for five minutes then placed in a 37° C. incubator at 5% CO2.
Given the prevalence of drug resistance and altered drug penetration for 3D cultures, drug concentrations for single dose experiments were in the micromolar or microgram per milliliter range for testing. […] Viability was determined 48 hours later. For durvalumab (Selleckchem, Texas, USA) and olaparib combination studies, spheroids were treated with olaparib for 48 hours, followed by durvalumab for an additional 72 hours. […] T-cells were then added to the bulk cells and seeded for 3D spheroid culture. Viability was determined 48 hours later. Viability read outs were conducted using CellTiter-Glo® 3D Cell Viability Assay (Promega, Wisconsin, USA) and relative luminescence units (RLUs) were recorded using a TECAN infinite M1000pro (Mannedorf, Switzerland).
Statistical analysis was performed using GraphPad Prism software version 8.2.1. Results are expressed as the mean±standard deviation (SD). Unpaired t tests were used to determine significance between two groups. Unpaired One-way ANOVA with multiple comparisons was used to determine significance across three or more groups. Combenefit software generated concentration responses and Loewe synergy indices from calculated percent viability normalized to vehicle control.

[2] = tested on: recurrent platinum-resistant OC; conditions: patients with recurrent platinum-resistant OC; cited from earlier work
[3] = tested on: melanoma cell line with tumor infiltrating lymphocytes; assay: Image based assay of tumor and T-cell interactions in 3D spheroids; conditions: 1:3 E:T, up to 72 hours, drug alone
Protocol: Referring to FIGS. 25A-H, a summary of an image-based assay for measuring tumor and T-cell interactions for I/O applications is shown. FIG. 25(A) illustrates representative images of a melanoma cell line (Green) and tumor infiltrating lymphocytes (Red) at a 1:3 Effector:Target cell ratio (E:T) cultured as 3D spheroids at 72 hours, Scale bar=200 μm. Groups were treated with immunomodulators (Activator=CD3/CD28 antibody, Durva=Durvalumab) and analyzed every 24 hours for 72 hours (FIGS. 25F-25H). Total red or green fluorescence was measured for T-cells (FIGS. 25B and 25C) and tumor cells (FIG. 25F) using an algorithm developed in Celleste Image Analysis software. Imaging based metrics were compared to conventional methods for assessing cell viability, CellTiter-Glo® (FIGS. 25D and 25G) and flow cytometry (FIGS. 25E and 25H). An increase in T-cell viability in all treatment groups was observed compared to no treatment when cultured with tumor cells (D). Total green fluorescence signal (F) was an acceptable indicator of T-cell induced cytotoxicity when compared to CellTiter-Glo® (FIG. 25G). The use of flow cytometry as a metric for T-cell induced cytotoxicity appears to not be as sensitive at earlier timepoints (24 hrs) as at later timepoints (72 hours). […] Two-Way ANOVA, error bars reflect SD. *p<0.05, **p<0.01, ***p<0.001.

[4] = cited from earlier work; for half-life: in vivo
[5] = tested on: melanoma microtumors co-cultured with stacked T cell compartment; assay: Microtumor viability assay (PrestoBlue growth rate); type: cell-based, human
Protocol: PrestoBlue viability assays. PrestoBlue™ Cell Viability Reagent (Invitrogen A13262) was diluted 1:10 in EV3D media. Each T cell scaffold or microtumor was placed in 250 μl of diluted PrestoBlue reagent in a 96-well plate and allowed to incubate for 2 hours at 37° C. 5% CO2. Scaffolds and microtumors were then placed in fresh media and duplicates of 100 μl per PrestoBlue sample was pipetted into a black walled 96-well plate and read on a TECAN infinite M1000pro (Mannedorf, Switzerland) at an excitation of 560 nm and an emission 590 nm with a gain of 60. Absorbance measurements from scaffolds with no cells were subtracted from each sample and relative fluorescent units (RFU) were graphed using GraphPad Prism.
Microtumor viability assay. T cells and tumor cells were seeded in EV3D media and Matrigel (Corning 356234) with collagen (Corning 354236) in scaffolds. […] Scaffolds were incubated for 1 hour at 37° C. and 5% CO2 then 200 μl of EV3D media was added to each scaffold. After an additional hour, T cell scaffolds were placed on top of tumor cell scaffolds (microtumors) or microtumors were cultured in the absence of a stacked T cell scaffold. Media was changed every one to two days. Supernatant from day seven was collected and stored at −80° C. for analyte analysis. Viability was determined for T cell scaffolds and microtumors after 24 hours (day one) and at day seven using PrestoBlue™ Cell Viability Reagent (Invitrogen A13262). PrestoBlue absorbance readings (RFUs) for day one were subtracted from day seven to determine microtumor growth rates.

[6] = tested on: GM-CSF, IFNγ, Granzyme B, MIP-1α, MIP-1β, TNFα secretion; assay: Detection of analyte secretion in microtumor model (Milliplex); type: cell-based, human
Protocol: Detection of Analyte Secretion. Individual beads (GM-CSF, IFNγ, Granzyme B, MIP-1α, MIP-1β, TNFα) were purchased from the Milliplex™ MAP Human CD8+ T cell Magnetic Bead Panel 96-well Plate Assay (EMO Millipore HCD8MAG-15K). Supernatant was collected at day seven of microtumor viability assays and stored at −80° C. Samples were processed according to manufacturer's recommendations and the assay plate was run on the BIORAD Luminex® BioPLEX200™ System (Hercules, Calif.). Analyte concentration was determined by interpolation of assay standards using GraphPad Prism.

[7] = tested on: GEN26 tumor spheroids; assay: Tumor spheroid death assay (CellTiter-Glo 3D); type: cell-based, human; conditions: 24 hours
Protocol: Tumor spheroid death assay. […] After a 1 hour incubation at 37 C 5% CO2, plates were centrifuged for 5 minutes at 500×g. Tumor spheroids were allowed to form overnight. After 24 or 72 hours, CellTiter-Glo® 3D Cell Viability Assay (Promega G9683) was used according to manufacturer's recommendations and relative luminescence units (RLUs) were recorded using a TEGAN infinite M1000pro (Mannedorf, Switzerland). RLUs were graphed using GraphPad Prism.

[8] = tested on: T cells stimulated with matched melanoma tumor spheroids; assay: Tumor spheroid assay to assess T cell responses (flow cytometry); type: cell-based, human
Protocol: Tumor spheroid assay to assess T cell responses. Expanded T cells were cultured in the absence of activation components (EV3D media) for 72 hours prior to tumor spheroid assay. […] After a 1 hour incubation, plates were centrifuged for 5 minutes at 500×g. Patient samples were then cultured for 24 hours, and wells were then harvested for flow cytometric analysis.
Flow cytometry. Cells were harvested from 384-well plates following tumor spheroid assays or dissociated from scaffolds and resuspended in 100 μl FACS buffer (2% FBS, 2 mM EDTA, 0.05% sodium azide in PBS). […] Samples were then analyzed using the CytoFLEX LX flow cytometer and software (Beckman Coulter, Brea, Calif.). Percent of parent was then graphed and evaluated for statistics using GraphPad Prism.

[9] = tested on: CD3+ T cells infiltrating matched melanoma microtumors; assay: Detection of T cell infiltration in microtumor model; type: cell-based, human
Protocol: Detection of T cell infiltration. T cells were stained with the fluorescent stain PKH (Sigma PKH26GL-1KT) according to manufacturer's recommendations. On the same day, T cells and tumor cells were seeded in EV3D media and Matrigel (Corning 356234) in scaffolds. Scaffolds were incubated for 1 hour at 37° C. and 5% CO2 then 200 μl of EV3D media was added to each scaffold well. After an additional hour, T cell scaffolds were placed on top of tumor cell scaffolds (microtumors). Media was changed every one or two days. Viability was determined for T cell scaffolds and microtumors after one week using PrestoBlue™ Cell Viability Reagent (Invitrogen A13262). Microtumors were washed in PBS, then harvested using Liberase DH (Sigma LIBDH− RO) in serum-free media while rotating at 37° C. 5% CO2. Harvested cells were then analyzed for PKH (PE channel), and CD3 using flow cytometry. Unstained T cells were used to define PKH+ gates.

Compound: O=C(c1cc(Cc2n[nH]c(=O)c3ccccc23)ccc1F)N1CCN(C(=O)C2CC2)CC1 [olaparib]
- spheroid appearance ([1]; OVC33, 48 hours, images): less dense with less cell contact
- spheroid viability, relative sensitivity of samples ([1]; olaparib alone, 50 μM (OVC33) or 100 μM (OVC45), 48 hours): OVC33 was more sensitive to olaparib alone compared to OVC45
- spheroid viability, relative sensitivity of samples ([1]; single agent olaparib dose-response, sequential dosing study): OVC33 remained more sensitive to single agent olaparib than OVC45

Compound: NC(=O)c1cccc2cn(-c3ccc([C@@H]4CCCNC4)cc3)nc12 [niraparib]
- complete or partial responses, share of patients [2]: < 5%

Compound: durvalumab
- T-cell induced cytotoxicity [3]: did not cause significant T-cell induced cytotoxicity
- spheroid viability ([1]; durvalumab alone, dose-response, OVC45 and OVC33): did not result in a dose-dependent reduction in spheroid viability
- half-life ([4]; human): high
- predicted achievable serum concentration levels ([4]; twice weekly intravenous dosing regimen): greater than 10 μg/mL

Compound: pembrolizumab
- microtumor growth rate ([5]; GEN19 and GEN26, 100 μg/ml, day 1 to day 7, vs untreated): reduced microtumor growth rates compared to untreated
- microtumor growth rate ([5]; GEN20 or GEN21, 100 μg/ml, day 1 to day 7, vs no treatment): did not detect a difference in microtumor growth rates
- overall microtumor viability ([5]; GEN26, 100 μg/ml, vs untreated microtumors): reduction in overall microtumor viability
- PrestoBlue RFU readings ([5]; day one to day seven, GEN19, GEN26, GEN20, GEN21): altered the RFU readings over the 7 day period for GEN19 and GEN26 more significantly than GEN20 and GEN21
- granzyme B secretion ([6]; GEN19, day 7, 100 μg/ml): greatest increase
- analyte secretion ([6]; GEN19 and GEN26, day 7, 100 μg/ml, vs no treatment): increase in nearly all analytes tested
- analyte secretion ([6]; GEN20, day 7, 100 μg/ml): reduction of all tested analytes
- analyte secretion ([6]; GEN21, day 7, 100 μg/ml): increase in GM-CSF and moderate or no change for other tested analytes
- tumor spheroid viability ([7]; GEN26 tumor spheroids alone, 100 μg/ml, vs no treatment): slight decrease in viability
- tumor spheroid viability ([7]; GEN26 tumor spheroids co-cultured with T cells, ratio 1:5, 100 μg/ml): greatest reduction in tumor spheroid viability
- CD3+/PD-1−/CD69+ population (T cell activation) ([8]; GEN25, data not shown): did not display an increase
- CD3+/PD-1−/CD69+ levels (T cell activation) ([8]; three patients (GEN19, GEN21, GEN26), tumor spheroids + 100 μg/ml pembrolizumab vs T cells with or without spheroids): significant increase
- spheroid viability ([1]; OVC33, T-cells incubated with 300 μg/mL pembrolizumab before 3D incorporation, 48 hours): significant reduction in spheroid viability
- spheroid viability ([1]; OVC45 and OVC33, 100 μg/mL pembrolizumab alone, 48 hours): decrease in spheroid viability with pembrolizumab treatment alone was not detected for both samples
- half-life [4]: approximately 27 days
- predicted maximum serum concentration ([4]; intravenous 10 mg/kg once every two weeks, advanced solid tumor cancer patients): approximately 200 μg/mL
- infiltration of CD3+ T cells ([9]; GEN19 and GEN20, with vs without treatment): decrease was observed
- infiltration of CD3+ T cells ([9]; GEN21 and GEN26, with vs without treatment): increase in infiltration of CD3+ T cells
